Key:
[1] = tested on: HIV Tat-mediated transcription; assay: HIV Tat-mediated transcription in HeLa MAGI cells; assay type: cell-based, human immunodeficiency virus (HIV); details: 18 hours
Procedure: FIG. 10. ARC has antiviral activity against HIV (human immunodeficiency virus) in a cell culture model. HeLa MAGI cells were infected with Adeno-Tat and treated with different amounts of ARC for 18 hours after which, MTT was added to measure cell viability and B-Gal expression was measured by ONPG assay. B-Gal expression is indicative of HIV Tat transactivation ability. Assays were done in quadruplicates.

[2] = tested on: LIM1215 colon cancer, AGS gastric cancer and HepG2 liver cancer cells; assay: Cleaved caspase-3 immunoblot in cancer cell lines of different origin; assay type: cell-based, human; details: 48 hours
Procedure: (§1) Immunoblotting was performed as described with antibodies specific for p53 (sc-126 HRP; Santa Cruz), hdm2 (sc-965; Santa Cruz), p21 (556431; BD Pharmingen), Sp1 (sc-59; Santa Cruz), survivin (sc-10811; Santa Cruz), phospho RNA polymerase II (4735; Cell Signaling), total RNA polymerase II (8WG16; a gift from Dr. Schlegel, University of Illinois at Chicago), α-tubulin (T9026; Sigma), cleaved caspase-3 (9664; Cell Signaling), caspase-9 (9502; Cell Signaling) and β-actin (A5441; Sigma) antibodies.

[3] = tested on: LIM1215 colon cancer cells; assay: Apoptosis by PI staining and flow cytometry in LIM1215 cells; assay type: cell-based, human
Procedure: For Flow Cytometry, cells were fixed in 70% ethanol and stored at −20° C. until further analysis. Equal numbers of fixed cells were then stained with PI solution (0.1% Triton X-100, 0.2 mg/ml DNase free RNase, 0.02 mg/ml propidium iodide) made in PBS for 15 min at 37° C. and analyzed by a flow cytometer.
In order to evaluate the extent to which ARC induces apoptosis relative to that of the other known nucleoside analog DRB, LIM1215 colon cancer cells were treated with either ARC or DRB for 48 hours.

[4] = tested on: leukemia cell lines CEM, HL-60, NB4 and U937; assay: TMRE staining and flow cytometry of leukemia cells; assay type: cell-based; details: 5 μM, 24 hours
Procedure: FIG. 7. ARC induces mitochondrial injury in leukemia cells. Different leukemia cells were either treated with DMSO (gray) or 5 μM ARC (white) for 24 hours, stained with TMRE (tetramethyl rhodamine ethyl ester) and subjected to flow cytometry. CEM cells are shown in panel (A), HL-60 in panel (B), NB4 in panel (C) and U937 in panel (D). The shift in the peak from right (DMSO; gray) to left (ARC-treated; white) is due to the lower intake of the dye caused by the loss in mitochondrial potential.
(§2) In order to further probe the mechanism of ARC-induced apoptosis, whether or not ARC causes mitochondrial injury was investigated. Permeabilization of mitochondria, followed by cytochrome c release has previously been observed for transcriptional inhibitor flavopiridol. For this analysis, leukemia cell lines CEM, HL-60, NB4 and U937 were treated with either DMSO or ARC. […] It is well known that the Bcl2 family members (eg., Bcl-2, Bcl-XL, Mcl-1) protect the mitochondrial integrity, thereby acting in an anti-apoptotic manner. It is possible that ARC modulates the expression of one or more of these proteins to cause mitochondrial injury.

P-TEFb (Cdk9/Cyclin T1) = target: T1, P-TEFb (Cdk9/Cyclin T1) (Homo sapiens, UniProt P50750); assay: P-TEFb kinase assay with GST-CTD as substrate; assay type: biochemical; details: 30° C., 1 hour
T1 construct: gift from Dr. Nekhai (Howard University)
Procedure: Purified P-TEFb (Cdk9/Cyclin T1) protein and GST-CTD (GST-tagged C-terminal domain of RNA polymerase II) expression plasmid were gifts from Dr. Nekhai (Howard University). GST-CTD protein was expressed in BL21 E. coli (Stratagene) and purified using a GST protein purification kit (Amersham Biosciences). The kinase assay was performed at 30° C. for 1 hour in the presence of P-TEFb with or without the addition of ARC. The phosphorylation levels of GST-CTD were detected with anti-phospho RNA polymerase II antibody (4735; Cell Signaling).
(§3) It is known that DRB and flavopiridol inhibit transcription by blocking the kinase activity of P-TEFb, which in turn leads to decreased phosphorylation of RNA polymerase II C-terminal domain (CTD). To determine if ARC operates by a similar mechanism, a kinase assay was performed with purified P-TEFb using GST-CTD (GST tagged C-terminal domain of RNA polymerase II) as the substrate. […] To evaluate this effect in vivo, HCT-116 cells were treated with ARC for 3 hours and analyzed levels of phospho-RNA polymerase II by immunoblotting. While the total amount of RNA polymerase II remained unchanged, phosphorylation of the RNA polymerase II CTD decreased upon ARC treatment (FIG. 2D), consistent with the in vitro kinase assay.

[5] = tested on: phospho-RNA polymerase II; assay: Immunoblot of phospho-RNA polymerase II in HCT-116 cells; assay type: cell-based, human; details: 3 hours
Procedure: as §1, §3

Mcl-1, Bcl-2 = assay: Immunoblot of Bcl-2 and Mcl-1 levels; assay type: cell-based
Procedure: FIG. 8. ARC downregulates Mcl-1 levels in different cancer cells. (A) U937 leukemia cells were treated with different concentrations of ARC as indicated for 24 hours and the cell lysates were probed for Mcl-1 levels. (B) Neuroblastoma cell lines were treated either with DMSO or 1 μM ARC for 24 hours and levels of Mcl-1 were assessed by immunoblotting.
as §2

T1 sequence (P50750 whole entry, species assumed): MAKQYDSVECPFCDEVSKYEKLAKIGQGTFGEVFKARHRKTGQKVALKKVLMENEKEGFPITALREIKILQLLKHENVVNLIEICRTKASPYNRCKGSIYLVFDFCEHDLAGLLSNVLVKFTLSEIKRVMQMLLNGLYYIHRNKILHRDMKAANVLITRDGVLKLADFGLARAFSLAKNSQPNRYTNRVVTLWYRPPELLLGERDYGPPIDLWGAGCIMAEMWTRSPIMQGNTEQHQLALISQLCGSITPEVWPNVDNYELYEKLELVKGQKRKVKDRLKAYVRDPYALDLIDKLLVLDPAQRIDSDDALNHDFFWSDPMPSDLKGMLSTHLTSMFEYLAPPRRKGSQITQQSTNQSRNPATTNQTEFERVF
T1 sequence (O60563 whole entry partner, species assumed): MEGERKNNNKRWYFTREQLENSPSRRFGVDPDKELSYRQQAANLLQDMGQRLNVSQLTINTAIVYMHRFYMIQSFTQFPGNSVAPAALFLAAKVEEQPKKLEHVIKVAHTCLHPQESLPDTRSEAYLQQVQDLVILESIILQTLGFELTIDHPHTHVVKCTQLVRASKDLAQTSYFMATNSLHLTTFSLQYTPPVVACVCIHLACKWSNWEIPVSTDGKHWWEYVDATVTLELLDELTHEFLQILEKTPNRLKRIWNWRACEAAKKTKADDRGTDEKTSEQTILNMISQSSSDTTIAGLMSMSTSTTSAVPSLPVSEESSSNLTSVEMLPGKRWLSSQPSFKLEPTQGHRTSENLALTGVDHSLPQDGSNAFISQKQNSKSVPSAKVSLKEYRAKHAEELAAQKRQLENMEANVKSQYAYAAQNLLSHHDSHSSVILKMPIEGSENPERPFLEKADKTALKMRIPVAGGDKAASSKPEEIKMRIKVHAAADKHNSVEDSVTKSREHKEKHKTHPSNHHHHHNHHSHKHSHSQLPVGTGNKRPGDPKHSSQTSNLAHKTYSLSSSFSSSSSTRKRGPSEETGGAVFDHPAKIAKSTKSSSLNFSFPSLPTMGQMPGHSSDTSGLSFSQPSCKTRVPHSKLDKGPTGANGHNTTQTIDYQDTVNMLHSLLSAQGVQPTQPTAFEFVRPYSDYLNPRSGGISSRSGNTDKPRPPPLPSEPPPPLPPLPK

NNc1c(C(N)=O)c2c(N)ncnc2n1[C@@H]1O[C@H](CO)[C@@H](O)[C@H]1O [ARC, 4-amino-6-hydrazino-7-beta-D-ribofuranosyl-7H-pyrrolo[2,3-d]-pyrimidine-5-carboxamide]
HIV Tat-mediated transcription (B-Gal expression) ([1]; HeLa MAGI cells infected with Adeno-Tat): efficiently inhibited HIV Tat-mediated transcription in a dose-dependent manner | rate of transcription versus cell viability (MTT) ([1]; HeLa MAGI cells): affected more than the viability of cells | cleavage of caspase-3 ([2]; HepG2 with stable knock-down of p53, 20 μM): showed cleavage of caspase-3 | cleavage of caspase-3 ([2]; LIM1215, AGS and HepG2 cells, 20 μM): cleavage of caspase-3 were detected | apoptosis (PI staining, flow cytometry) ([3]; 5 μM, 48 hours): 37.8% | efficiency in inducing apoptosis relative to DRB ([3]; LIM1215 cells (FIG. 5F)): > 10 fold | mitochondrial potential (TMRE) [4]: mitochondrial depolarization | phosphorylation of GST-CTD by P-TEFb (P-TEFb (Cdk9/Cyclin T1)): potently decreased the phosphorylation of GST-CTD | phosphorylation of the RNA polymerase II CTD in cells [5]: decreased | Mcl-1 levels (Mcl-1, Bcl-2; U937 leukemia and neuroblastoma cell lines, 24 hours): drastically reduced | Bcl-2 levels (Mcl-1, Bcl-2; data not shown): no changes in the levels of Bcl-2

Reference: patent US8207136B2, “Nucleoside compounds and methods of use thereof” (The Board of Trustees of the University of Illinois, priority 2005, dated 2012)
